What follows are substances tested on siRNA (assay: Gel retardation assay of siRNA encapsulation). Details: 2% agarose, 100 pmol siRNA mixed with peptide 30 min at room temperature, ratios 1:5 to 1:50.
Format: physicochemical
Description: Peptide-woven siRNA nanocomplexes (PwSN) were prepared by mixing siRNA in diethylpyrocarbonate (DEPC)-treated water (100 pmoles) with peptide carrier with a molar ratio of 1:5 to 1:50 (siRNA: peptide) for 30 min at room temperature. The samples were subjected on 2% agarose gels electrophoresis to examine siRNA encapsulation. To test the stability of the siRNA nanocomplex against RNase A, the nanocomplex containing 100 pmol of siRNA mixed with 20-fold molar excess of peptides, then was incubated in the presence or absence of RNase A (0.2 μg) for up to 6 h at 37°C. After incubation, the RNase A activity was inhibited by addition of 2% sodium dodecyl sulfate (SDS) and subjected to agarose gel electrophoresis.
With “CRKRLDRNC-GG-RRRRRRRRR [I4R-9r, interleukin-4 receptor-targeting peptide (I4R) connected by GG to nine D-arginine peptide]” the “siRNA:peptide molar ratios at which siRNA is encapsulated” value was “between 1:20 and 1:50”.

What follows are substances tested on siRNA (assay: SPR analysis of peptide binding to immobilized siRNA). Details: peptide with sHGP-9r (19:1 molar ratios), 10, 5, 2.5 and 1.25 μM, biotinylated siRNA on streptavidin chip, 25°C.
Description: The dynamics of PwSN formation were studied by SPR analysis (SR7500 DC, Reichert Inc, Depew, NY). 5′-Biotinylated siRNAs were diluted to 1 μM in HBS buffer (10 mM HEPES, pH 7.4, 150 mM NaCl, 3.4 mM EDTA, 0.005% Tween20), heated at 85°C for 10 min, cooled to room temperature, diluted to 20 fmol/μl in running buffer (10 mM HEPES, pH 7.4, 150 mM NaCl, 62.5 μg/ml bovine serum albumin, 125 μg/ml tRNA, 1 mM dithiothreitol, 0.05% Tween20), and injected at 10 μl/min. 50–100 response units of siRNA were coated per flow channel on streptavidin-coated sensor chip (NeutrAvidin Surface chip; Reichert Analytical Instrument, Depew, NY). 2-min injections of four different peptide concentrations (10, 5, 2.5, and 1.25 μ M) were injected over the sensor chip surface at 25°C with a flow rate of 25 μl/min. The surface was regenerated by removing bound peptides with a 180-s 2 M NaCl injection and 20-s 0.1% SDS followed by a binding buffer injection to rinse the needle. Sensorgrams were fit to kinetic titration model using Clamp program. To monitor dissociation between peptide and siRNA upon heparan sulfate competition, The 2.5 μM of peptides were injected to reach saturated binding and different concentrations of heparan sulfate were injected.
For “CRKRLDRNCggRARRARRAR [I4R-9r(A3), I4R-9r variant with three alanine substitutions]”, the “binding affinity for siRNA (in words)” value was “lowest affinity”. In the case of “CRKRLDRNCggRRARRRARR [I4R-9r(A2), I4R-9r variant with two alanine substitutions]”, the “binding affinity for siRNA (in words)” value was “lowest affinity”. “CRKRLDRNC-GG-RRRRRRRRR [I4R-9r, interleukin-4 receptor-targeting peptide (I4R) connected by GG to nine D-arginine peptide]” was tested, and the “binding affinity for siRNA (in words)” value was “strongest binding affinity”. In the case of “CRKRLDRNCggRRRRARRRR [I4R-9r(A1), I4R-9r variant with one arginine of 9r replaced by alanine]”, the “binding affinity for siRNA (in words)” value was “moderate affinity”. For “CRKRLDRNCggRRARRRRRR [I4R-9r(A1*), I4R-9r variant with one arginine of 9r replaced by alanine, other position]”, the “binding affinity for siRNA (in words)” value was “moderate affinity”.
